Source: patent publication US20260022142A1, “MACROCYCLIC IMMUNOMODULATORS” (Bristol-Myers Squibb Company, priority 2022, published 2026)
Bridge positions count the residues as written; N and C are the ends. Square brackets hold non-standard residues; d marks the D form. Peptide text beside a SMILES is read from it. * marks the point of attachment. Phe(3-CF3) = N[C@@H](Cc1cccc(C(F)(F)F)c1)C(=O)O; Ala(morpholin-4-yl) = N[C@@H](CN1CCOCC1)C(=O)O; Phe(4-COOH) = N[C@@H](Cc1ccc(C(=O)O)cc1)C(=O)O; Bip = N[C@@H](Cc1ccc(-c2ccccc2)cc1)C(=O)O; Phe(4-CN) = N#Cc1ccc(C[C@H](N)C(=O)O)cc1; NH(CH2)14COOH = O=C(O)CCCCCCCCCCCCCCN*; Phe(3-Me) = Cc1cccc(C[C@H](N)C(=O)O)c1; NH(CH2)12COOH = O=C(O)CCCCCCCCCCCCN*; Val(3-OH) = CC(C)(O)[C@H](N)C(=O)O; dAla(cPr) = N[C@H](CC1CC1)C(=O)O; hArg = N=C(N)NCCCC[C@H](N)C(=O)O; 4Pal = N[C@@H](Cc1ccncc1)C(=O)O; Cha = N[C@@H](CC1CCCCC1)C(=O)O; Cit = NC(=O)NCCC[C@H](N)C(=O)O; PEG4 = NCCOCCOCCOCCOCCC(=O)O; 12Ado = NCCCCCCCCCCCC(=O)O; hSer = N[C@@H](CCO)C(=O)O; Carboxymethyl = O=C(O)C*; Orn = NCCC[C@H](N)C(=O)O; Aun = NCCCCCCCCCCC(=O)O; Dab = NCC[C@H](N)C(=O)O; Abu = CC[C@H](N)C(=O)O; Dap = NC[C@H](N)C(=O)O; AEEA = NCCOCCOCC(=O)O

molecular target: T1, PD-1/PD-L1 interaction (PE-labeled human PD-L1-Ig binding to Jurkat cell line over-expressing human PD-1) (Homo sapiens, UniProt Q15116); test: Jurkat-PD-1 Cell Binding High-Content Screening Assay (CBA); format: cell-based; settings: Jurkat cell line over-expressing human PD-1; PE-labeled PD-L1-Ig 20 nM final; read-out: Jurkat hPD1-PDL1 IC50
T1 construct: expressed in transfected cells; host or cells: Jurkat
T1 sequence (Q15116 25-288): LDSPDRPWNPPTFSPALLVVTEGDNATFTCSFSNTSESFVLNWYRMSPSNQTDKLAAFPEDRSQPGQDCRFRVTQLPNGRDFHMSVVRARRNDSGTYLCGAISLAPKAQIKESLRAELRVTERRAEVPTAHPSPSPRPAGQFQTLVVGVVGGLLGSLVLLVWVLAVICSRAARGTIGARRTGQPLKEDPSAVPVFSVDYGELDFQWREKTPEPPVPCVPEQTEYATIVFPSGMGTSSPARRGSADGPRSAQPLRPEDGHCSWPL
Outline: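 Jurkat cells stably over-expressing human PD-1 were seeded in DMEM with 10% fetal calf serum and pre-incubated with compound for 2 h at 37° C. PE-labeled human PD-L1-Ig was then added at 20 nM final for 1 hour, after which cells were fixed with paraformaldehyde, Hoechst-stained and imaged by high-content microscopy.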

IC50 [nM]	SMILES
10.2	Cc1cccc(C[C@@H]2NC(=O)[C@H](CC(=O)O)NC(=O)[C@H](Cc3ccc(OCC(=O)O)cc3)NC(=O)[C@H](CN)NC(=O)CSC[C@@H](C(=O)N[C@@H](CCN)C(=O)NCCCCCCCCCCC(=O)O)NC(=O)[C@H](CCCCN)NC(=O)[C@H](C(C)C)NC(=O)[C@H](CC3CCCCC3)NC(=O)[C@H](CCN)NC(=O)[C@@H](CC3CC3)NC(=O)[C@H](CCCN)NC(=O)[C@H](C(C)C)NC(=O)[C@H](Cc3ccc(-c4ccccc4)cc3)NC(=O)[C@H](C(C)C)NC2=O)c1 [Compound 2026] ({CH2CO}-[Dap]Y(Carboxymethyl)D[Phe(3-Me)]V[Bip]V[Orn][dAla(cPr)][Dab][Cha]VKC[Dab][Aun]-OH; thioether N-14)
33.4	CC(C)C[C@H]1NC(=O)[C@H](CCCN)NC(=O)[C@H](C(C)C)NC(=O)[C@H](Cc2ccc(-c3ccccc3)cc2)NC(=O)[C@H](C(C)C)NC(=O)[C@H](Cc2c[nH]c3ccccc23)NC(=O)[C@H](CC(=O)O)NC(=O)[C@H](Cc2ccc(OCC(=O)O)cc2)NC(=O)[C@H](CCCCNC(=N)N)NC(=O)CSC[C@@H](C(=O)NCC(=O)N[C@@H](CCCN)C(=O)NCCCCCCCCCCCC(=O)O)NC(=O)[C@H](CN)NC(=O)[C@H](C(C)C)NC(=O)[C@H](CC2CCCCC2)NC(=O)[C@H](CC(N)=O)NC1=O [Compound 3176] ({CH2CO}-[hArg]Y(Carboxymethyl)DWV[Bip]V[Orn][dL]N[Cha]V[Dap]CG[Orn][12Ado]-OH; thioether N-14)
44.8	CC[C@@H]1NC(=O)CSC[C@@H](C(=O)N[C@@H](CCN)C(=O)NCCCCCCCCCCCCC(=O)O)NC(=O)[C@H](Cc2c[nH]cn2)NC(=O)[C@H](C(C)(C)O)NC(=O)[C@H](CC2CCCCC2)NC(=O)[C@H](CCN)NC(=O)[C@@H](CC(C)C)NC(=O)[C@H](CCCN)NC(=O)[C@H](Cc2ccc(C(=O)O)cc2)NC(=O)[C@H](Cc2ccc(-c3ccccc3)cc2)NC(=O)[C@H](Cc2ccc(C(=O)O)cc2)NC(=O)[C@H](Cc2cccc(C(F)(F)F)c2)NC(=O)[C@H](CC(=O)O)NC(=O)[C@H](Cc2ccc(OCC(=O)O)cc2)NC1=O [Compound 2928] ({CH2CO}-[Abu]Y(Carboxymethyl)D[Phe(3-CF3)][Phe(4-COOH)][Bip][Phe(4-COOH)][Orn][dL][Dab][Cha][Val(3-OH)]HC[Dab]-{NH(CH2)12COOH}; thioether N-14)
31.3	Cc1cccc(C[C@@H]2NC(=O)[C@H](CC(=O)O)NC(=O)[C@H](Cc3ccc(OCC(=O)O)cc3)NC(=O)[C@H](Cc3ccncc3)NC(=O)CSC[C@@H](C(=O)N[C@@H](CCN)C(=O)NCCCCCCCCCCC(=O)O)NC(=O)[C@H](CO)NC(=O)[C@H](C(C)(C)O)NC(=O)[C@H](CC3CCCCC3)NC(=O)[C@H](CCN)NC(=O)[C@@H](CC(C)C)NC(=O)[C@H](CCCN)NC(=O)[C@H](Cc3ccc(OCC(=O)O)cc3)NC(=O)[C@H](Cc3ccc(-c4ccccc4)cc3)NC(=O)[C@H](C(C)(C)O)NC2=O)c1 [Compound 2187] ({CH2CO}-[4Pal]Y(Carboxymethyl)D[Phe(3-Me)][Val(3-OH)][Bip]Y(Carboxymethyl)[Orn][dL][Dab][Cha][Val(3-OH)]SC[Dab][Aun]-OH; thioether N-14)
23.9	Cc1cccc(C[C@@H]2NC(=O)[C@H](CC(=O)O)NC(=O)[C@H](Cc3ccc(OCC(=O)O)cc3)NC(=O)[C@H](CCCNC(=N)N)NC(=O)CSC[C@@H](C(=O)N[C@@H](CCN)C(=O)NCCCCCCCCCCC(=O)O)NC(=O)[C@@H](CCC(N)=O)NC(=O)[C@H](C(C)C)NC(=O)[C@H](CC3CCCCC3)NC(=O)[C@H](CCN)NC(=O)[C@@H](CC(C)C)NC(=O)[C@H](CCN)NC(=O)[C@H](CCCNC(N)=O)NC(=O)[C@H](Cc3ccc(-c4ccccc4)cc3)NC(=O)[C@H](C(C)C)NC2=O)c1 [Compound 2820] ({CH2CO}-RY(Carboxymethyl)D[Phe(3-Me)]V[Bip][Cit][Dab][dL][Dab][Cha]V[dQ]C[Dab][Aun]-OH; thioether N-14)
176	CC(C)C[C@H]1NC(=O)[C@H](CCCN)NC(=O)[C@H](Cc2ccc(C(=O)O)cc2)NC(=O)[C@H](Cc2ccc(-c3ccccc3)cc2)NC(=O)[C@H](Cc2ccc(C(=O)O)cc2)NC(=O)[C@H](Cc2cccc(C(F)(F)F)c2)NC(=O)[C@H](CC(=O)O)NC(=O)[C@H](Cc2ccc(OCC(=O)O)cc2)NC(=O)[C@H](CN2CCOCC2)NC(=O)CSC[C@@H](C(=O)N[C@@H](CCN)C(=O)NCCOCCOCC(=O)NCCOCCOCC(=O)NCCCCCCCCCCCCCCC(=O)O)NC(=O)[C@H](CO)NC(=O)[C@H](C(C)(C)O)NC(=O)[C@H](CC2CCCCC2)NC(=O)[C@H](CCN)NC1=O [Compound 2915] ({CH2CO}-[Ala(morpholin-4-yl)]Y(Carboxymethyl)D[Phe(3-CF3)][Phe(4-COOH)][Bip][Phe(4-COOH)][Orn][dL][Dab][Cha][Val(3-OH)]SC[Dab][AEEA][AEEA]-{NH(CH2)14COOH}; thioether N-14)
61	CC(C)C[C@H]1NC(=O)[C@H](CCCN)NC(=O)[C@H](C(C)C)NC(=O)[C@H](Cc2ccc(-c3ccccc3)cc2)NC(=O)[C@H](C(C)C)NC(=O)[C@H](Cc2c[nH]c3ccccc23)NC(=O)[C@H](CC(=O)O)NC(=O)[C@H](Cc2ccc(OCC(=O)O)cc2)NC(=O)[C@H](CN)NC(=O)CSC[C@@H](C(=O)N[C@@H](C)C(=O)N[C@@H](CO)C(=O)NCCCCCCCCCCC(=O)O)NC(=O)[C@H]([C@@H](C)O)NC(=O)[C@H](C(C)C)NC(=O)[C@H](CC2CCCCC2)NC(=O)[C@H](Cc2cnc[nH]2)NC1=O [Compound 1114] ({CH2CO}-[Dap]Y(Carboxymethyl)DWV[Bip]V[Orn][dL]H[Cha]VTCAS[Aun]-OH; thioether N-14)
7.6	CC(C)C[C@H]1NC(=O)[C@H](CCCN)NC(=O)[C@H](C(C)C)NC(=O)[C@H](Cc2ccc(-c3ccccc3)cc2)NC(=O)[C@H](C(C)C)NC(=O)[C@H](Cc2c[nH]c3ccccc23)NC(=O)[C@H](CC(=O)O)NC(=O)[C@H](Cc2ccc(OCC(=O)O)cc2)NC(=O)[C@H](CCCNC(=N)N)NC(=O)CSC[C@@H](C(=O)NCC(=O)NCCOCCOCC(=O)N[C@@H](CCCN)C(=O)NCCCCCCCCCCCC(=O)O)NC(=O)[C@H](CO)NC(=O)[C@H](C(C)C)NC(=O)[C@H](CC2CCCCC2)NC(=O)[C@H](CCN)NC1=O [Compound 3181] ({CH2CO}-RY(Carboxymethyl)DWV[Bip]V[Orn][dL][Dab][Cha]VSCG[AEEA][Orn][12Ado]-OH; thioether N-14)
7.3	Cc1cccc(C[C@@H]2NC(=O)[C@H](CC(=O)O)NC(=O)[C@H](Cc3ccc(OCC(=O)O)cc3)NC(=O)[C@H](Cc3ccc(C#N)cc3)NC(=O)CSC[C@@H](C(=O)N[C@@H](CCN)C(=O)NCCOCCOCC(=O)NCCCCCCCCCCC(=O)O)NC(=O)[C@H](CO)NC(=O)[C@H](C(C)(C)O)NC(=O)[C@H](CC3CCCCC3)NC(=O)[C@H](CCN)NC(=O)[C@@H](CC(C)C)NC(=O)[C@H](CCCN)NC(=O)[C@H](Cc3ccc(OCC(=O)O)cc3)NC(=O)[C@H](Cc3ccc(-c4ccccc4)cc3)NC(=O)[C@H](Cc3ccc(OCC(=O)O)cc3)NC2=O)c1 [Compound 2240] ({CH2CO}-[Phe(4-CN)]Y(Carboxymethyl)D[Phe(3-Me)]Y(Carboxymethyl)[Bip]Y(Carboxymethyl)[Orn][dL][Dab][Cha][Val(3-OH)]SC[Dab][AEEA][Aun]-OH; thioether N-14)
14.2	Cc1cccc(C[C@@H]2NC(=O)[C@H](CC(=O)O)NC(=O)[C@H](Cc3ccc(OCC(=O)O)cc3)NC(=O)[C@H](CN)NC(=O)CSC[C@@H](C(=O)N[C@@H](C)C(=O)N[C@@H](CCCN)C(=O)NCCCCCCCCCCC(=O)O)NC(=O)[C@H]([C@@H](C)O)NC(=O)[C@H](C(C)C)NC(=O)[C@H](CC3CCCCC3)NC(=O)[C@H](CCN)NC(=O)[C@@H](CC(C)C)NC(=O)[C@H](CCCN)NC(=O)[C@H](CCCNC(N)=O)NC(=O)[C@H](Cc3ccc(-c4ccccc4)cc3)NC(=O)[C@H](C(C)C)NC2=O)c1 [Compound 1072] ({CH2CO}-[Dap]Y(Carboxymethyl)D[Phe(3-Me)]V[Bip][Cit][Orn][dL][Dab][Cha]VTCA[Orn][Aun]-OH; thioether N-14)
8.7	CC(C)C[C@H]1NC(=O)[C@H](CCCN)NC(=O)[C@H](C(C)C)NC(=O)[C@H](Cc2ccc(-c3ccccc3)cc2)NC(=O)[C@H](C(C)C)NC(=O)[C@H](Cc2c[nH]c3ccccc23)NC(=O)[C@H](CC(=O)O)NC(=O)[C@H](Cc2ccc(OCC(=O)O)cc2)NC(=O)[C@H](CCCNC(=N)N)NC(=O)CSC[C@@H](C(=O)N[C@@H](CCCN)C(=O)NCCCCCCCCCCC(=O)O)NC(=O)[C@H](CCO)NC(=O)[C@H](C(C)C)NC(=O)[C@H](CC2CCCCC2)NC(=O)[C@H](CCN)NC1=O [Compound 3339] ({CH2CO}-RY(Carboxymethyl)DWV[Bip]V[Orn][dL][Dab][Cha]V[hSer]C[Orn][Aun]-OH; thioether N-14)
32.9	CC[C@@H]1NC(=O)CSC[C@@H](C(=O)N[C@@H](CCN)C(=O)NCCOCCOCCOCCOCCC(=O)NCCCCCCCCCCCCC(=O)O)NC(=O)[C@H](Cc2c[nH]cn2)NC(=O)[C@H](C(C)(C)O)NC(=O)[C@H](CC2CCCCC2)NC(=O)[C@H](CCN)NC(=O)[C@@H](CC(C)C)NC(=O)[C@H](CCCN)NC(=O)[C@H](Cc2ccc(C(=O)O)cc2)NC(=O)[C@H](Cc2ccc(-c3ccccc3)cc2)NC(=O)[C@H](Cc2ccc(C(=O)O)cc2)NC(=O)[C@H](Cc2cccc(C(F)(F)F)c2)NC(=O)[C@H](CC(=O)O)NC(=O)[C@H](Cc2ccc(OCC(=O)O)cc2)NC1=O [Compound 2926] ({CH2CO}-[Abu]Y(Carboxymethyl)D[Phe(3-CF3)][Phe(4-COOH)][Bip][Phe(4-COOH)][Orn][dL][Dab][Cha][Val(3-OH)]HC[Dab][PEG4]-{NH(CH2)12COOH}; thioether N-14)
